What is called IC50 is the concentration that inhibits the measured activity by half. The melting point is the temperature of the solid-liquid transition.

Where two headings read alike, the source gives them in different places.

Data set [1] relates to NCIH-460 (human lung cells). As to the kind of experiment: MTT cytotoxicity, NCIH-460 cells. Type of data set: cell-based. The following applies: three independent experiments, read-out: Cytotoxic activity IC50 (95% CI) NCIH-460. The procedure: (§1) Compounds were evaluated for antitumor activity in cell culture in vitro using several human cancer cell lines obtained from the National Cancer Institute, NCI (Bethesda, MD, USA). […] The L929 cells were cultivated under standard conditions in DMEM with Earle’s salts. […] At the end of the incubation time (72 h), the plates were centrifuged and the medium was replaced by fresh medium (200 μL) containing 0.5 mg/mL MTT. After 3 h, the MTT formazan product was dissolved in DMSO (150 μL) and the absorbance was measured using a multiplate reader (Spectra Count, Packard, ON, Canada). The impact of compounds on cell proliferation was quantified as the percentage of control absorbance of the reduced dye at 550 nm. All cell culture based studies were performed in triplicate. All cells were mycoplasma-free.

Data set [2] has as its system HCT-116 (human colon carcinoma cells). Kind of data set: MTT cytotoxicity, HCT-116 cells. It counts as cell-based. The conditions noted are these: three independent experiments, read-out: Cytotoxic activity IC50 (95% CI) HCT-116. Here is the method: as §1
Data set [3] concerns SF295 (human glioblastoma cells). Kind of data set: MTT cytotoxicity, SF295 cells. The conditions noted are these: three independent experiments, read-out: Cytotoxic activity IC50 (95% CI) SF295. Type of data set: cell-based. The procedure:
as §1

Data set [4] concerns HL-60 (human promyelocytic leukemia cells). Kind of data set: MTT cytotoxicity, HL-60 cells. The conditions noted are these: three independent experiments, read-out: Cytotoxic activity IC50 (95% CI) HL-60. Type of data set: cell-based. Here is the method: as §1
In data set [5] the test system is L929 (murine fibroblasts normal cells). Kind of data set: MTT cytotoxicity, L929 normal cells. The following applies: normal cell line, 72 h exposure, three independent experiments, read-out: Cytotoxic activity IC50 (95% CI) L929. It counts as cell-based, mouse. The procedure: as §1
The test system of data set [6] is PC3 (human prostate cancer cells). Kind of data set: MTT cytotoxicity, PC3 cells. The conditions noted are these: three independent experiments, read-out: Cytotoxic activity IC50 (95% CI) PC3. It counts as cell-based. Here is the method:
as §1

Data set [7] in a line: MTT cytotoxicity, L929 normal cells. It counts as cell-based, mouse. The following applies: mouse, normal cell line, 72 h exposure, three independent experiments, read-out: Cytotoxic activity IC50 (95% CI) L929. The procedure: as §1
Where [8] appears, read: Homo sapiens, NCI-H460, 72 h exposure.
The mark [9] stands for this setting: Homo sapiens, HCT-116, 72 h exposure.
Where [10] appears, read: Homo sapiens, SF-295, 72 h exposure.
Setting [11] is: Homo sapiens, HL-60, 72 h exposure.
[12] abbreviates: Homo sapiens, PC-3, 72 h exposure.

Regarding “4-(4-((Benzylselanyl)methyl)-1H-1,2,3-triazol-1-yl)-3-bromo-2,2-dimethyl-3,4-dihydro-2H-benzo[h]-chromene-5,6-dione [Compound 20]”, the IC50 was found to be 3260 nM in data set [1] (72 h exposure); 2030 nM in data set [2] (72 h exposure); 3120 nM in data set [3] (72 h exposure); 1000 nM in data set [4] (72 h exposure); 610 nM in data set [5].
On to “3-Bromo-2,2-dimethyl-4-(4-((p-tolylselanyl)methyl)-1H-1,2,3-triazol-1-yl)-3,4-dihydro-2H-benzo[h]-chromene-5,6-dione [Compound 21]”, for which the IC50 in data set [1] (72 h exposure) is 1490 nM; in data set [2] (72 h exposure), greater than 8000 nM; in data set [3] (72 h exposure) it was 1630 nM; in data set [4] (72 h exposure), 1000 nM; in data set [5] it was 1280 nM; in data set [6] (72 h exposure), 1770 nM.
`COc1ccc([Se]Cc2cn(C3C4=C(OC(C)(C)C3Br)c3ccccc3C(=O)C4=O)nn2)cc1` (stereo not shown) [Compound 19, 3-Bromo-4-(4-(((4-methoxyphenyl)selanyl)methyl)-1H-1,2,3-triazol-1-yl)-2,2-dimethyl-3,4-dihydro-2H-benzo[h]chromene-5,6-dione] yielded a melting point of 113.5 to 114.6 °C. Besides, in data set [1] (setting [8]), the IC50 was determined as 2330 nM. The half-inhibitory concentration (IC50) in data set [2] (setting [9]) was greater than 8000 nM. The IC50 in data set [3] (setting [10]) was determined as 1750 nM. Moreover, the IC50 in data set [4] (setting [11]) was found to be 1280 nM. For the same molecule, the IC50 at 72 h in data set [7] was 680 nM. Moreover, the IC50 in data set [6] (setting [12]) came out at 1550 nM.
Take `COC1=C(Cn2cc(-c3ccc(OC)cc3)nn2)C(=O)c2ccccc2C1=O` [Compound 11, 2-Methoxy-3-((4-(4-methoxyphenyl)-1H-1,2,3-triazol-1-yl)methyl)naphthalene-1,4-dione]: the melting point is 149.3 to 150.7 °C. Besides, the IC50 in data set [1] (setting [8]) is greater than 10000 nM. For the same molecule, the IC50 in data set [2] (setting [9]) is greater than 10000 nM. Moreover, the IC50 in data set [3] (setting [10]) was greater than 10000 nM. Besides, the half-inhibitory concentration (IC50) in data set [4] (setting [11]) turned out to be 2320 nM. Also, in data set [7], the IC50 at 72 h is greater than 10000 nM. Also, in data set [6] (setting [12]), the IC50 is greater than 10000 nM.
